Results: ChEMBL document CHEMBL5236632, “Membrane-Active Nonivamide Derivatives as Effective Broad-Spectrum Antimicrobials: Rational Design, Synthesis, and Biological Evaluation” (J Med Chem, 2022)
In brackets after ≈: the same amount, converted by molar mass. Activity calls are given as the source filed them. The calls are words filed in the database; no cut-off is given here.

What was measured:
[1] = Selectivity ratio, HC50 for hemolytic activity in rabbit RBC to MIC for antibacterial activity against methicillin-resistant Staphylococcus aureus N315; format: toxicity; conditions: rabbit red blood cells
[2] = Haemolytic activity in rabbit red blood cells incubated for 60 mins by k multi-mode reader relative to control; format: toxicity, cell-based, Oryctolagus cuniculus, Erythrocyte; conditions: for HC50 at 1 h: rabbit red blood cells
[3] = system: Escherichia coli; assay: Antibacterial activity against Escherichia coli ATCC 25922 assessed as inhibition of visible growth measured after 18 to 24 hrs by broth dilution method; format: functional; conditions: time 18-24 hrs
[4] = Selectivity ratio, HC50 for hemolytic activity in rabbit RBC to MIC for antibacterial activity against Staphylococcus aureus ATCC 29213; format: toxicity; conditions: rabbit red blood cells
[5] = system: Staphylococcus aureus; assay: Antibacterial activity against Staphylococcus aureus ATCC 29213 assessed as inhibition of visible growth measured after 18 to 24 hrs by broth dilution method; format: functional; conditions: time 18-24 hrs
[6] = system: Staphylococcus aureus; assay: Antibacterial activity against methicillin-resistant Staphylococcus aureus N315 assessed as inhibition of visible growth measured after 18 to 24 hrs by broth dilution method; format: functional; conditions: time 18-24 hrs
[7] = Selectivity ratio, HC50 for hemolytic activity in rabbit RBC to MIC for antibacterial activity against methicillin-resistant Staphylococcus aureus NCTC 10442; format: toxicity; conditions: rabbit red blood cells
[8] = system: Staphylococcus aureus; assay: Antibacterial activity against methicillin-resistant Staphylococcus aureus NCTC 10442 assessed as inhibition of visible growth measured after 18 to 24 hrs by broth dilution method; format: functional; conditions: time 18-24 hrs
[9] = system: Staphylococcus aureus; assay: Antibacterial activity against Staphylococcus aureus ATCC 29213 assessed as reduction in bacterial load at 8 time of MIC measured after 8 hrs by time kill assay; format: functional
[10] = Selectivity ratio, HC50 for hemolytic activity in rabbit RBC to MIC for antibacterial activity against Klebsiella pneumoniae ATCC 14581; format: toxicity; conditions: rabbit red blood cells
[11] = system: Klebsiella pneumoniae; assay: Antibacterial activity against Klebsiella pneumoniae ATCC 10031 assessed as inhibition of visible growth measured after 18 to 24 hrs by broth dilution method; format: functional; conditions: time 18-24 hrs
[12] = Selectivity ratio, HC50 for hemolytic activity in rabbit RBC to MIC for antibacterial activity against Acinetobacter baumannii ATCC 17978; format: toxicity; conditions: rabbit red blood cells
[13] = system: Acinetobacter baumannii; assay: Antibacterial activity against Acinetobacter baumannii ATCC 17978 assessed as inhibition of visible growth measured after 18 to 24 hrs by broth dilution method; format: functional; conditions: time 18-24 hrs
[14] = system: Klebsiella pneumoniae; assay: Antibacterial activity against Klebsiella pneumoniae ATCC 14581 assessed as inhibition of visible growth measured after 18 to 24 hrs by broth dilution method; format: functional; conditions: time 18-24 hrs
[15] = Selectivity ratio, HC50 for hemolytic activity in rabbit RBC to MIC for antibacterial activity against Pseudomonas aeruginosa ATCC 9027; format: toxicity; conditions: rabbit red blood cells
[16] = Selectivity ratio, HC50 for hemolytic activity in rabbit RBC to MIC for antibacterial activity against Acinetobacter baumannii R2889; format: toxicity; conditions: rabbit red blood cells
[17] = Selectivity ratio, HC50 for hemolytic activity in rabbit RBC to MIC for antibacterial activity against Klebsiella pneumoniae ATCC 10031; format: toxicity; conditions: rabbit red blood cells
[18] = system: Acinetobacter baumannii; assay: Antibacterial activity against Acinetobacter baumannii R2889 assessed as inhibition of visible growth measured after 18 to 24 hrs by broth dilution method; format: functional; conditions: time 18-24 hrs
[19] = system: Staphylococcus aureus; assay: Drug resistance development in Staphylococcus aureus ATCC 29213 assessed as fold change in MIC measured after 20 passages; format: functional
[20] = system: Cell membrane; assay: Induction of membrane depolarization in Staphylococcus aureus ATCC 29213 assessed as increase in fluorescence intensity at 4 to 8 times MIC measured for 60 mins by DiSC3(5) dye based fluorescence method; format: subcellular
[21] = system: Cell membrane; assay: Induction of membrane depolarization in Escherichia coli ATCC 25922 assessed as increase in fluorescence intensity at 4 to 8 times MIC measured for 60 mins by DiSC3(5) dye based fluorescence method; format: subcellular
[22] = system: Cell membrane; assay: Induction of outer membrane permeability in Escherichia coli ATCC 25922 assessed as increase fluoresence intensity at 4 to 8 times of MIC measured for 60 mins by NPN uptake assay; format: subcellular

| Compound | selectivity ratio [1] | HC50 at 1 h [2] [µg/mL] | MIC [3] [µg/mL] | selectivity ratio [4] | MIC [5] [µg/mL] | MIC [6] [µg/mL] | selectivity ratio [7] | MIC [8] [µg/mL] | other results |
| --- | --- | --- | --- | --- | --- | --- | --- | --- | --- |
| CCCCCCCCC(=O)NCc1ccc(OCCCCCCNCCN(CCNC(=N)N)CCNC(=N)N)c(OCCCCCCNCCN(CCNC(=N)N)CCNC(=N)N)c1 | > 128 | > 200 | 12.5 (≈ 13.8 µM) | > 128 | 1.56 (≈ 1.73 µM) | 1.56 (≈ 1.73 µM) | > 128 | 1.56 (≈ 1.73 µM) | – |
| CCCCCCCCC(=O)NCc1ccc(OCCCCCCNCCN(CCN)CCN)c(OC)c1 | > 64 | > 200 | > 50 | > 64 | 3.12 (≈ 5.99 µM) | 3.12 (≈ 5.99 µM) | > 64 | 3.12 (≈ 5.99 µM) | – |
| CCCCCCCCC(=O)NCc1ccc(OCCCCCCCCCCCCNC(=N)N)c(OC)c1 | – | > 200 | > 50 | – | > 50 | 25 (≈ 48.2 µM) | – | 25 (≈ 48.2 µM) | – |
| CCCCCCCCC(=O)NCc1ccc(OCCCCCCCCNC(=N)N)c(OC)c1 | > 128 | > 200 | > 50 | > 128 | 1.56 (≈ 3.37 µM) | 1.56 (≈ 3.37 µM) | > 128 | 1.56 (≈ 3.37 µM) | – |
| CCCCCCCCC(=O)NCc1ccc(OCCCCNCC)c(OC)c1 | – | > 200 | > 50 | – | > 50 | > 50 | – | > 50 | – |
| CCCCCCCCC(=O)NCc1ccc(OCCCCCCN)c(OC)c1 | – | > 200 | > 50 | – | > 50 | > 50 | – | > 50 | – |
| CCCCCCCCC(=O)NCc1ccc(OCCCCNC(=N)N)c(OC)c1 | > 16 | > 200 | > 50 | > 16 | 12.5 (≈ 30.7 µM) | 6.25 (≈ 15.4 µM) | > 16 | 6.25 (≈ 15.4 µM) | – |
| CCCCCCCCC(=O)NCc1ccc(OCCCCCNC(=N)N)c(OC)c1 | > 32 | > 200 | 50 (≈ 119 µM) | > 32 | 6.25 (≈ 14.9 µM) | 6.25 (≈ 14.9 µM) | > 32 | 6.25 (≈ 14.9 µM) | – |
| CCCCCCCCC(=O)NCc1ccc(OCCCCCCNC(=N)N)c(OC)c1 | > 64 | > 200 | > 50 | > 64 | 3.12 (≈ 7.19 µM) | 3.12 (≈ 7.19 µM) | > 64 | 1.56 (≈ 3.59 µM) | – |
| CCCCCCCCC(=O)NCc1ccc(OCCCCN)c(OC)c1 | – | > 200 | > 50 | – | > 50 | > 50 | – | > 50 | – |
| CCCCCCCCC(=O)NCc1ccc(OCCCCNC(=N)N)c(OCCCCNC(=N)N)c1 | > 32 | > 200 | 50 (≈ 98.9 µM) | > 32 | 6.25 (≈ 12.4 µM) | 3.12 (≈ 6.18 µM) | > 32 | 3.12 (≈ 6.18 µM) | – |
| CN[C@H](CC(C)C)C(=O)N[C@H]1C(=O)N[C@@H](CC(N)=O)C(=O)N[C@H]2C(=O)N[C@H]3C(=O)N[C@H](C(=O)N[C@H](C(=O)O)c4cc(O)cc(O)c4-c4cc3ccc4O)[C@H](O)c3ccc(c(Cl)c3)Oc3cc2cc(c3O[C@@H]2O[C@H](CO)[C@@H](O)[C@H](O)[C@H]2O[C@H]2C[C@](C)(N)[C@H](O)[C@H](C)O2)Oc2ccc(cc2Cl)[C@H]1O [VANCOMYCIN] | – | – | > 50 | – | 1.56 (≈ 1.08 µM) | 0.78 (≈ 0.538 µM) | – | 0.78 (≈ 0.538 µM) | Activity [9]: 2.44 log10CFU/ml |
| CCCCCCCCC(=O)NCc1ccc(OCCCCCCCCCCNC(=N)N)c(OC)c1 | > 32 | > 200 | > 50 | > 32 | 6.25 (≈ 12.7 µM) | 6.25 (≈ 12.7 µM) | > 32 | 6.25 (≈ 12.7 µM) | – |
| CC[C@H](C)[C@H](NC(=O)CN)C(=O)NCC(=O)N[C@@H](C)C(=O)N[C@H](C(=O)N[C@@H](CC(C)C)C(=O)N[C@@H](CCCCN)C(=O)N[C@H](C(=O)N[C@@H](CC(C)C)C(=O)N[C@H](C(=O)N[C@H](C(=O)NCC(=O)N[C@@H](CC(C)C)C(=O)N1CCC[C@H]1C(=O)N[C@@H](C)C(=O)N[C@@H](CC(C)C)C(=O)N[C@H](C(=O)N[C@@H](CO)C(=O)N[C@@H](Cc1c[nH]c2ccccc12)C(=O)N[C@H](C(=O)N[C@@H](CCCCN)C(=O)N[C@@H](CCCNC(=N)N)C(=O)N[C@@H](CCCCN)C(=O)N[C@@H](CCCNC(=N)N)C(=O)N[C@@H](CCC(N)=O)C(=O)N[C@@H](CCC(N)=O)C(N)=O)[C@@H](C)CC)[C@@H](C)CC)[C@@H](C)O)[C@@H](C)O)C(C)C)C(C)C [MELITTIN] | 6.1 | – | – | 6.1 | – | – | 6.1 | – | HC5 ([2]; erythrocyte, 1 h): 5.4 µg/mL; selectivity ratio [10]: 3.1; MIC [11]: 6.25 µg/mL (≈ 2.2 µM); selectivity ratio [12]: 3.1; MIC [13]: 3.12 µg/mL (≈ 1.1 µM); MIC [14]: 6.25 µg/mL (≈ 2.2 µM); selectivity ratio [15]: 3.1; selectivity ratio [16]: 3.1; selectivity ratio [17]: 3.1; MIC [18]: 3.12 µg/mL (≈ 1.1 µM) |
| COc1cc(CNC(=O)CCCC/C=C/C(C)C)ccc1OCCCCNC(=N)N | > 32 | > 200 | 50 (≈ 119 µM) | > 32 | 3.12 (≈ 7.47 µM) | 6.25 (≈ 14.9 µM) | > 32 | 3.12 (≈ 7.47 µM) | – |
| COc1cc(CNC(=O)CCCC/C=C/C(C)C)ccc1OCCCCCCN | – | > 200 | > 50 | – | > 50 | > 50 | – | > 50 | – |
| CCN(CC)CCCCOc1ccc(CNC(=O)CCCC/C=C/C(C)C)cc1OC | – | > 200 | > 50 | – | > 50 | > 50 | – | > 50 | – |
| CCn1cc(C(=O)O)c(=O)c2cc(F)c(N3CCNCC3)cc21 [NORFLOXACIN] | – | – | – | – | – | – | – | – | fold change (FC) [19]: 128 |
| CCCCCCCCC(=O)NCc1ccc(OCCCCN(CC)CC)c(OC)c1 | – | > 200 | > 50 | – | > 50 | > 50 | – | > 50 | – |
| CCCCCCCCC(=O)NCc1ccc(O)c(O)c1 | – | > 200 | > 50 | – | > 50 | > 50 | – | > 50 | – |
| COc1cc(CNC(=O)CCCC/C=C/C(C)C)ccc1O [CAPSAICIN] | – | > 200 | > 50 | – | > 50 | > 50 | – | > 50 | Activity [20]: inactive; Activity [21]: inactive; Activity [22]: inactive |
| CCCCCCCCC(=O)NCc1ccc(OCCCCN(CCCN(C)C)CCCN(C)C)c(OC)c1 | – | > 200 | > 50 | – | > 50 | > 50 | – | > 50 | – |
| CCCCCCCCC(=O)NCc1ccc(OCCCNC(=N)N)c(OC)c1 | > 8 | > 200 | > 50 | > 8 | 25 (≈ 63.7 µM) | 12.5 (≈ 31.8 µM) | > 8 | 12.5 (≈ 31.8 µM) | – |
| COc1cc(CNC(=O)CCCC/C=C/C(C)C)ccc1OCCCCCCNC(=N)N | > 32 | > 200 | > 50 | > 32 | 6.25 (≈ 14 µM) | 3.12 (≈ 7 µM) | > 32 | 3.12 (≈ 7 µM) | – |
| CCCCCCCCC(=O)NCc1ccc(OCC(=O)N[C@@H](CCCNC(=N)N)C(=O)N[C@@H](CCCNC(=N)N)C(=O)N[C@@H](CCCNC(=N)N)C(=O)OC)c(OC)c1 | – | > 200 | > 50 | – | > 50 | > 50 | – | 50 (≈ 59.9 µM) | – |
| CCCCCCCCC(=O)NCc1ccc(OCC(=O)N[C@@H](CCCNC(=N)N)C(=O)OC)c(OC)c1 | > 4 | > 200 | > 50 | > 4 | 25 (≈ 47.9 µM) | 50 (≈ 95.8 µM) | > 4 | 25 (≈ 47.9 µM) | – |
| COc1cc(CNC(=O)CCCC/C=C/C(C)C)ccc1OCCCCCCNCCN(CCNC(=N)N)CCNC(=N)N | > 32 | > 200 | 50 (≈ 80.9 µM) | > 32 | 6.25 (≈ 10.1 µM) | 3.12 (≈ 5.06 µM) | > 32 | 3.12 (≈ 5.06 µM) | – |
| CCCCCCCCC(=O)NCc1ccc(OCCNC(=N)N)c(OC)c1 | > 4 | > 200 | > 50 | > 4 | 50 (≈ 132 µM) | 25 (≈ 66 µM) | > 4 | 25 (≈ 66 µM) | – |
